From BindingDB's records for patent US9908886 (Agency For Science, Technology and Research, 2018)

Experiments:
[1] = biological target: MAP kinase-interacting serine/threonine-protein kinase 1 (Homo sapiens, UniProt Q9BUB5); experiment: In Vitro Kinase Assay
Method: (§1) MNK1 and MNK2 inhibitor activity was determined using recombinant kinase domains expressed in E. coli. MNK1 and MNK2 were expressed as GST fusion proteins and the GST tag was removed using PreScission protease. After concentration to 10-15 mg/ml the proteins were flash frozen in liquid nitrogen and stored at −80° C. […] This reaction mixture was then used immediately for the activation of the MNKs. The activation of the MNK1 was performed by incubating 5.0 μM of MNK1 with 0.3 μM of activated ERK2 and 500 μM ATP at 30° C. for 6 hours. The activation of MNK2 was performed by incubating 50 μM of MNK2 with 3.0 μM of activated ERK2 and 500 μM ATP at 30° C. for 2 hours. The activated MNKs were stored at −20° C. until required for assay.

[2] = biological target: MAP kinase-interacting serine/threonine-protein kinase 2 (Homo sapiens, UniProt Q9HBH9); experiment: In Vitro Kinase Assay
MAP kinase-interacting serine/threonine-protein kinase 2, sequence (Q9HBH9 whole entry): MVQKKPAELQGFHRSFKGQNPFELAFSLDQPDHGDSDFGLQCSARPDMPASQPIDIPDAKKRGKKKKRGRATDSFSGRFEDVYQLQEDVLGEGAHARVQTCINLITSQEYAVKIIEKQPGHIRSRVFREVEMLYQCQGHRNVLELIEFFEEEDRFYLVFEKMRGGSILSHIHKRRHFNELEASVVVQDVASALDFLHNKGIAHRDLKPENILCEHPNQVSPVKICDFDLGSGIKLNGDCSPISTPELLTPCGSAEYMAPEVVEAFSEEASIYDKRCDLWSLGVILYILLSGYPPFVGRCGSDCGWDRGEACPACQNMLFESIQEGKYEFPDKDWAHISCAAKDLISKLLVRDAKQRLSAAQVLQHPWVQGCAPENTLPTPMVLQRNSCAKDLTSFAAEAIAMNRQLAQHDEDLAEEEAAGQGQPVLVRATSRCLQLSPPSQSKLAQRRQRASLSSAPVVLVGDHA
Method: as §1

MAP kinase-interacting serine/threonine-protein kinase 1, sequence (Q9BUB5 whole entry, the tested form may be a part): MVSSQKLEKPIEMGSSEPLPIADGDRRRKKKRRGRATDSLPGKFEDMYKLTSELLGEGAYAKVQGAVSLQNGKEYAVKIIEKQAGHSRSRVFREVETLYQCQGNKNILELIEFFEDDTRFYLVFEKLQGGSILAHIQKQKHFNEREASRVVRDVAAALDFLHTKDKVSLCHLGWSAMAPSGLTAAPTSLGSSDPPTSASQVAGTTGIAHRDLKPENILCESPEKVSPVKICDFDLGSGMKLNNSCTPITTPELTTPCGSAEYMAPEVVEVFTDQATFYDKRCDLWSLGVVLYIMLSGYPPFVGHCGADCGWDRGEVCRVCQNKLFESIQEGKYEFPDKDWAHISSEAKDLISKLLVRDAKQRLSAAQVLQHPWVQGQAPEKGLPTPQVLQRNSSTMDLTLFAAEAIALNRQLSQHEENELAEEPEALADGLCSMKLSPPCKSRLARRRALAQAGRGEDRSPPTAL

Compound: CN1CCN(C(=O)c2ccc(-c3ccc4ncc(-c5ccc(C#N)cc5)n4n3)cc2)CC1 [US9908886, Example 54]
- IC50 [1]: < 100 nM
- IC50 [2]: < 100 nM
